Assay results as given in ChEMBL document CHEMBL1137781, “Synthesis and preclinical evaluation of novel PET probes for P-glycoprotein function and expression” (J Med Chem, 2009).

Experiments:
[1] = test system: NCI/ADR-RES; assay: Inhibition of Pgp in human MCF7/ADR cells assessed as increase in doxorubicin accumulation at 20 uM relative to untreated control; assay type: cell-based
[2] = test system: NCI/ADR-RES; assay: Inhibition of Pgp in human MCF7/ADR cells assessed as potentiation of doxorubicin-induced cytotoxicity at 20 uM relative to untreated control; assay type: cell-based; design: Activity: scale not given: the % may be the effect or the level left
[3] = test system: Caco-2; assay: Ratio of permeability from basolateral to apical side over apical to basolateral side in human Caco-2 cells; assay type: ADME, cell-based

Row | SMILES | fold change (FC) [1] | Activity [2] [%] | Ratio [3] | fold change (FC) [2]
1 | COc1cc2c(cc1OC)CN(CCCC1CCCc3c(OC)cccc31)CC2 (stereo unspecified) | 4.8 | 85 | 18 | –
2 | COc1cc2c(cc1OC)CN(CC/C=C1\CCCc3c(OC)cccc31)CC2 | 5.7 | – | 1.6 | 95
